Reference: ChEMBL document CHEMBL1154879, “Discovery of (thienopyrimidin-2-yl)aminopyrimidines as potent, selective, and orally available pan-PI3-kinase and dual pan-PI3-kinase/mTOR inhibitors for the treatment of cancer” (J Med Chem, 2010)
The source made the active and inactive calls. The calls are words filed in the database; no cut-off is given here.

What was measured:
Mus musculus [1] = assay: Inhibition of PI3K/Akt/mTOR pathway signaling in PI3Kalpha mutant expressing human MCF7.1 cells xenografted nu/nu mouse assessed as inhibition of Pras40 Thr246 phosphorylation at 6.25 mg/kg, po qd for 21 days measured 4 hrs after last administered dose on day 21 by ELISA; assay type: functional
[2] = biological target: Phosphatidylinositol 4,5-bisphosphate 3-kinase catalytic subunit gamma isoform (Homo sapiens, UniProt P48736)
Sequence of Phosphatidylinositol 4,5-bisphosphate 3-kinase catalytic subunit gamma isoform (P48736 whole entry, canonical isoform): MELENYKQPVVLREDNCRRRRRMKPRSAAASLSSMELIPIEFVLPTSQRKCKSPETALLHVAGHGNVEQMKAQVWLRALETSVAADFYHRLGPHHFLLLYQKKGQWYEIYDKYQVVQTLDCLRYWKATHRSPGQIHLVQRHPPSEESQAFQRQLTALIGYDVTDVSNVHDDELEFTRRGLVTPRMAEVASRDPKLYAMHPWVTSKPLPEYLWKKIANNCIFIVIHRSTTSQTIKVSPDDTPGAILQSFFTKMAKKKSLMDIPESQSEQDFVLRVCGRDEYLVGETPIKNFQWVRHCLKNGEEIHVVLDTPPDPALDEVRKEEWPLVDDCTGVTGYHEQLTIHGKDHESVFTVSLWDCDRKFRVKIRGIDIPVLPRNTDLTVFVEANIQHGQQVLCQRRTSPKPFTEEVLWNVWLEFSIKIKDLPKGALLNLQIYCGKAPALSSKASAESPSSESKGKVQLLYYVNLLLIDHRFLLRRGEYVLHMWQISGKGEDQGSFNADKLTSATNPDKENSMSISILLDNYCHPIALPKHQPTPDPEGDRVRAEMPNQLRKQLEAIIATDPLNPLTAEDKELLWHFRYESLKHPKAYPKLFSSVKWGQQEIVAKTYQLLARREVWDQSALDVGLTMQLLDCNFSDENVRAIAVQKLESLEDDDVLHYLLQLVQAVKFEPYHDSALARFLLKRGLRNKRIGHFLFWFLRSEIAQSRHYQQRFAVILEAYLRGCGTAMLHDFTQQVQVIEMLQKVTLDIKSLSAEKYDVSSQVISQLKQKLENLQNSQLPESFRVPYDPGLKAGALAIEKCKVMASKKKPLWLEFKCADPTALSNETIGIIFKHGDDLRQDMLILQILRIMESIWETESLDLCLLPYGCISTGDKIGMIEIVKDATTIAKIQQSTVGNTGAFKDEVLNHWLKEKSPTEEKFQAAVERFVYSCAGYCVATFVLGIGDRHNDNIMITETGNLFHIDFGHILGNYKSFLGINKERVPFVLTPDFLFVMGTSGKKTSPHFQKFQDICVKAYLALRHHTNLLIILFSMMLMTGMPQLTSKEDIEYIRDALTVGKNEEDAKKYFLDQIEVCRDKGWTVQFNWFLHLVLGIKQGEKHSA

[3] = Half life in nu/nu mouse at 5 mg/kg, po; assay type: ADME, organism-based; design: dose 5 mg/kg, route oral; details: in vivo
Mus musculus [4] = assay: Inhibition of PI3K/Akt/mTOR pathway signaling in PI3Kalpha mutant expressing human MCF7.1 cells xenografted nu/nu mouse assessed as inhibition of Akt Ser473 phosphorylation at 25 mg/kg, po qd for 21 days measured 4 hrs after last administered dose on day 21 by electrochemiluminescence assay; assay type: functional
Mus musculus [5] = assay: Inhibition of PI3K/Akt/mTOR pathway signaling in PI3Kalpha mutant expressing human MCF7.1 cells xenografted nu/nu mouse assessed as inhibition of Pras40 Thr246 phosphorylation at 6.25 mg/kg, po qd for 21 days measured 1 hr after last administered dose on day 21 by ELISA; assay type: functional
Mus musculus [6] = assay: Inhibition of PI3K/Akt/mTOR pathway signaling in PI3Kalpha mutant expressing human MCF7.1 cells xenografted nu/nu mouse assessed as inhibition of Pras40 Thr246 phosphorylation at 25 mg/kg, po qd for 21 days measured 4 hrs after last administered dose on day 21 by ELISA; assay type: functional
[7] = Antitumor activity against human MCF7.1 cells expressing PI3Kalpha mutant xenografted in nu/nu mouse assessed as inhibition of tumor growth at 50 mg/kg, po qd for 21 days; assay type: functional; details: MCF7.1, 504 h, read-out: TGI
Mus musculus [8] = assay: Inhibition of PI3K/Akt/mTOR pathway signaling in PI3Kalpha mutant expressing human MCF7.1 cells xenografted nu/nu mouse assessed as inhibition of S6RP Ser235/236 phosphorylation at 6.25 mg/kg, po qd for 21 days measured 4 hrs after last administered dose on day 21 by electrochemiluminescence assay; assay type: functional
[9] = biological target: Phosphatidylinositol 4,5-bisphosphate 3-kinase catalytic subunit alpha isoform (Homo sapiens, UniProt P42336)
[10] = biological target: Phosphatidylinositol 4,5-bisphosphate 3-kinase catalytic subunit beta isoform (Homo sapiens, UniProt P42338); assay: Inhibition of recombinant PI3Kbeta assessed as PIP3 product formation by fluorescence polarization assay
Aurora kinase A = biological target: T1, Aurora kinase A (Homo sapiens, UniProt O14965); assay: Inhibition of Aurora A kinase
T1 sequence (O14965 whole entry): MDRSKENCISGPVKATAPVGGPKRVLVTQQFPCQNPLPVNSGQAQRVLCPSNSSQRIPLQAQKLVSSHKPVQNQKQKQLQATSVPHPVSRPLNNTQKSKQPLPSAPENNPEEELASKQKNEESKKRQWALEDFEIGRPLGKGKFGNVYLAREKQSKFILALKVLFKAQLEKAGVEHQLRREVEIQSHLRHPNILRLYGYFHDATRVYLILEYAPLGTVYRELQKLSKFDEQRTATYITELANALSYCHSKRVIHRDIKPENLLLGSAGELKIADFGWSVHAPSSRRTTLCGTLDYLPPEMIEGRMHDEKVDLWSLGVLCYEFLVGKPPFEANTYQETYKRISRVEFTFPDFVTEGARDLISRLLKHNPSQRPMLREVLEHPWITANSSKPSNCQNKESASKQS

[11] = Protein binding in mouse plasma; assay type: ADME, cell-free; details: read-out: PPB (converted)
[12] = biological target: Phosphatidylinositol 4-phosphate 3-kinase C2 domain-containing subunit beta (Homo sapiens) (UniProt O00750); assay: Inhibition of PIK3C2beta at 1 uM
Sequence of Phosphatidylinositol 4-phosphate 3-kinase C2 domain-containing subunit beta (Homo sapiens) (O00750 whole entry, the tested form may be a part): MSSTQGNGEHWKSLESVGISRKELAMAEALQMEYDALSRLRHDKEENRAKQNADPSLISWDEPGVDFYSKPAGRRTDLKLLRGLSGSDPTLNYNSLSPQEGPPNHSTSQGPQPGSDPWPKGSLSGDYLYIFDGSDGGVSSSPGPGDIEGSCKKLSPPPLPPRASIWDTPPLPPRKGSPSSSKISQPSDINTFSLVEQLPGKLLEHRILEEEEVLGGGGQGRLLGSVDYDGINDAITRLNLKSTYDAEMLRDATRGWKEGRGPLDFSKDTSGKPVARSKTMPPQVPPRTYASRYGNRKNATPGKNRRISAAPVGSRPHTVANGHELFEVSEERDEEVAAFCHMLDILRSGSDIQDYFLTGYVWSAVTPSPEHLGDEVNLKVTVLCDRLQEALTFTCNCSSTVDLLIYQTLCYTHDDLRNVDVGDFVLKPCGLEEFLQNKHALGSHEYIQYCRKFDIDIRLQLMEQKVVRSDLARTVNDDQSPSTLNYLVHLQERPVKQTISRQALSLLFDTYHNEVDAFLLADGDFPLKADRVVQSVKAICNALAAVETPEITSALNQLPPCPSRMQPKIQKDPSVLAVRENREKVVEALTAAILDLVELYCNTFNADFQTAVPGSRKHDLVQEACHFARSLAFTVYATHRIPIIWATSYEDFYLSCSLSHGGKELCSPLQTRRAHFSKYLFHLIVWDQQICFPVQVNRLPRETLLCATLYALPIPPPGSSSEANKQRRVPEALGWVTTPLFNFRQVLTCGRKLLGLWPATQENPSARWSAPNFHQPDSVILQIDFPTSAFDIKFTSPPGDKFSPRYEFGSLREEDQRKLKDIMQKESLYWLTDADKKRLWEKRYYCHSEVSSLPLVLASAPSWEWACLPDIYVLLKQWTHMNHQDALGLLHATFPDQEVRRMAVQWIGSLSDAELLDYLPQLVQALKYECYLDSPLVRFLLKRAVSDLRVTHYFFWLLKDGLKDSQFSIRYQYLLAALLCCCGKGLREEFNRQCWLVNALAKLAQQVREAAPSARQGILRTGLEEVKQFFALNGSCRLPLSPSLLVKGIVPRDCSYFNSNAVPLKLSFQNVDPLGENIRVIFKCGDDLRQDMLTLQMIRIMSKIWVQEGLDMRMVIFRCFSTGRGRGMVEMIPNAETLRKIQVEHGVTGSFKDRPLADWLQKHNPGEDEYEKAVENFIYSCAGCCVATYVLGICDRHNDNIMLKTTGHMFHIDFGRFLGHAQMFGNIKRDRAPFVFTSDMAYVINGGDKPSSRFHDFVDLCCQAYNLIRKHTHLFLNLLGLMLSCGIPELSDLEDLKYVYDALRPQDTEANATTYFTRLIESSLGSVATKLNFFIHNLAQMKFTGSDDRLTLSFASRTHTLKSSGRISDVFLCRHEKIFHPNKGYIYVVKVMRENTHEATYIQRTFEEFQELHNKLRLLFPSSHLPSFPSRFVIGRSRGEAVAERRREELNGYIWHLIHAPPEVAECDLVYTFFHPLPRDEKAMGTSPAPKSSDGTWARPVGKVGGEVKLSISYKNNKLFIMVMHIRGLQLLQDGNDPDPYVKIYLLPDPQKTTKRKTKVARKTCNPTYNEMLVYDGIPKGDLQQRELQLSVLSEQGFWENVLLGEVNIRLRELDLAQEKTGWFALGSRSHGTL

Mus musculus [13] = assay: Toxicity in human MCF7.1 cells expressing PI3Kalpha mutant xenografted nu/nu mouse assessed as body weight loss at 25 mg/kg, po qd for 21 days; assay type: organism-based; design: dose 25 mg/kg, route oral; details: in vivo, 504 h
Mus musculus [14] = assay: Toxicity in human MCF7.1 cells expressing PI3Kalpha mutant xenografted nu/nu mouse assessed as body weight loss at 6.25 mg/kg, po qd for 21 days; assay type: organism-based; design: dose 6.25 mg/kg, route oral; details: in vivo, 504 h
[15] = biological target: Phosphatidylinositol 3-kinase catalytic subunit type 3 (Homo sapiens) (UniProt Q8NEB9); assay: Inhibition of VPS34 at 1 uM
MCF7.1 = assay: Antitumor activity against human MCF7.1 cells expressing PI3Kalpha mutant xenografted in nu/nu mouse assessed as inhibition of tumor growth at 25 mg/kg, po qd for 21 days; assay type: functional, organism-based; design: dose 25 mg/kg
[16] = Volume of distribution at steady state in nu/nu mouse at 1 mg/kg, iv; assay type: ADME, organism-based; design: dose 1 mg/kg, route intravenous; details: in vivo, read-out: Vdss
[17] = Oral bioavailability in nu/nu mouse at 5 mg/kg, po; assay type: ADME, organism-based; details: in vivo
Mus musculus [18] = assay: Inhibition of PI3K/Akt/mTOR pathway signaling in PI3Kalpha mutant expressing human MCF7.1 cells xenografted nu/nu mouse assessed as inhibition of Akt Ser473 phosphorylation at 12.5 mg/kg, po qd for 21 days measured 4 hrs after last administered dose on day 21 by electrochemiluminescence assay; assay type: functional
Mus musculus [19] = assay: Inhibition of PI3K/Akt/mTOR pathway signaling in PI3Kalpha mutant expressing human MCF7.1 cells xenografted nu/nu mouse assessed as inhibition of S6RP Ser235/236 phosphorylation at 6.25 mg/kg, po qd for 21 days measured 1 hr after last administered dose on day 21 by electrochemiluminescence assay; assay type: functional
Mus musculus [20] = assay: Inhibition of PI3K/Akt/mTOR pathway signaling in PI3Kalpha mutant expressing human MCF7.1 cells xenografted nu/nu mouse assessed as inhibition of S6RP Ser235/236 phosphorylation at 25 mg/kg, po qd for 21 days measured 1 hr after last administered dose on day 21 by electrochemiluminescence assay; assay type: functional
[21] = Antitumor activity against human MCF7.1 cells expressing PI3Kalpha mutant xenografted in nu/nu mouse assessed as inhibition of tumor growth at 6.25 mg/kg, po qd for 21 days; assay type: functional; details: MCF7.1, 504 h, read-out: TGI
[22] = biological target: Phosphatidylinositol 4-phosphate 3-kinase C2 domain-containing subunit alpha (Homo sapiens) (UniProt O00443); assay: Inhibition of PIK3C2alpha at 1 uM
Sequence of Phosphatidylinositol 4-phosphate 3-kinase C2 domain-containing subunit alpha (Homo sapiens) (O00443 whole entry, the tested form may be a part): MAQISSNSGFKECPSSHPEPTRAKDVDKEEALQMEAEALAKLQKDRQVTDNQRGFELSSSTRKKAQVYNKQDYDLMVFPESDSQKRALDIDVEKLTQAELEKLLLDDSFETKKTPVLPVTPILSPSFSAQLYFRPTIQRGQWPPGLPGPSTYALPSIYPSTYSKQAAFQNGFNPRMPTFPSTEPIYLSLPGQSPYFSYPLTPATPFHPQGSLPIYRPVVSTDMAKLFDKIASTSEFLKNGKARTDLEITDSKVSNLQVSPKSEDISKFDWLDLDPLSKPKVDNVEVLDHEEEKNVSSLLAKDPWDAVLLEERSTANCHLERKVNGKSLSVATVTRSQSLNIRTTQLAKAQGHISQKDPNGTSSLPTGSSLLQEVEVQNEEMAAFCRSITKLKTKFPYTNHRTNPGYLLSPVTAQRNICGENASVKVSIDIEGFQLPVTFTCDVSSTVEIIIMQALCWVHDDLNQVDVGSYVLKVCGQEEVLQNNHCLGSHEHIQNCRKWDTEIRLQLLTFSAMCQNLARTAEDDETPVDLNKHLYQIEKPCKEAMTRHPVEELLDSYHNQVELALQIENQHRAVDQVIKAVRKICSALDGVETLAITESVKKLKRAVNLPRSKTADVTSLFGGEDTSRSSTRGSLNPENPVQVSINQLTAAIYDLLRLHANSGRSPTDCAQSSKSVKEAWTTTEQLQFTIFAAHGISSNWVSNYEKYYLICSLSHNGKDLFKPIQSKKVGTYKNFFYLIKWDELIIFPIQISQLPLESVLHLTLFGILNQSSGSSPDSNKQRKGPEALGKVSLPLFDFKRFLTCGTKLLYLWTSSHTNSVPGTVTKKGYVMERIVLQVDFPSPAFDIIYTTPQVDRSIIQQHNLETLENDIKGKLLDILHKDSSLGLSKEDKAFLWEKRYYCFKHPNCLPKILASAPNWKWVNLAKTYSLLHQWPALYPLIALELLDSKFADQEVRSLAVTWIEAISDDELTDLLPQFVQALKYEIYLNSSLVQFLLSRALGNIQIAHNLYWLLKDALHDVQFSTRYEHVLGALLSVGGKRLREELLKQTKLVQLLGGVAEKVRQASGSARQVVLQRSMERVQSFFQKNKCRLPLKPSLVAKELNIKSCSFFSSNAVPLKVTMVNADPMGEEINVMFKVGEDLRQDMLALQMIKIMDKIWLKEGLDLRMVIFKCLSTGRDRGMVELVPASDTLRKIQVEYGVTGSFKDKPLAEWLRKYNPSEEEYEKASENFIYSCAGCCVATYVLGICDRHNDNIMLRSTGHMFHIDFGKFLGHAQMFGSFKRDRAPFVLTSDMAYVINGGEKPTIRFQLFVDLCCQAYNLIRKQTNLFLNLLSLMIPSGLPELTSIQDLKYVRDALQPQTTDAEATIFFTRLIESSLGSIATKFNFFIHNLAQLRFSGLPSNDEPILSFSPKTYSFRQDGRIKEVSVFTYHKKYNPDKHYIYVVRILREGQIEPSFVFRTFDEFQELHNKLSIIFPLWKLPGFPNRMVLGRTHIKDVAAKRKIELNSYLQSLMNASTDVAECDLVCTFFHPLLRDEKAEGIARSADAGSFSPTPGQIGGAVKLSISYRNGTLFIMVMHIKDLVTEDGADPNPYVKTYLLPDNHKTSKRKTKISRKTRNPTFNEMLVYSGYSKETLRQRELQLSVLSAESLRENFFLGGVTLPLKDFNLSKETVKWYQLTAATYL

- IC50 [2]: 15 nM
- half-life [3]: 4.6 h
- IC50 [9]: 3.5 nM
- IC50 [10]: 25 nM
- IC50 (Aurora kinase A): > 1000 nM
- fraction unbound [11]: 0.27
- inhibition [12]: 81%
- inhibition [15]: inactive
- Vd [16]: 3 L/kg
- bioavailability [17]: 100%
- inhibition [22]: inactive
SMILES: Cc1nc(N)ncc1-c1nc(N2CCOCC2)c2sc(C(C)(C)O)cc2n1
- inhibition in vivo at 6.25 mg/kg (Mus musculus [1]): 54%
- inhibition in vivo at 25 mg/kg (Mus musculus [4]): 66%
- inhibition in vivo at 6.25 mg/kg (Mus musculus [5]): 98%
- inhibition in vivo at 25 mg/kg (Mus musculus [6]): 95%
- inhibition in vivo at 50 mg/kg [7]: 88%
- inhibition in vivo at 6.25 mg/kg (Mus musculus [8]): 51%
- Activity (Mus musculus [13]): Non-toxic
- Activity (Mus musculus [14]): Non-toxic
- Activity (MCF7.1): Active
- inhibition in vivo at 12.5 mg/kg (Mus musculus [18]): 48%
- inhibition in vivo at 6.25 mg/kg (Mus musculus [19]): 70%
- inhibition in vivo at 25 mg/kg (Mus musculus [20]): 74%
- inhibition in vivo at 6.25 mg/kg [21]: 28%
